# Source: US20080102497A1, “ENZYMATIC HYDROLYSIS OF STARCH” (priority 2006, published 2008)
# Values joined by “and” are separate entries in the source; they are usually repeats but may differ in a detail not shown here. Equal entries are not always repeated. Where two headings read alike, the source gives them in different places.
# How the values were obtained:
# [1] = molecular target: α-amylase from Bacillus licheniformis (Bacillus licheniformis, UniProt P06278); assay: hydrolysis of raw corn starch, reducing sugar by DNSA; format: biochemical; conditions: for Relative Activity: raw corn starch, pH 5.3, 37° C., 20 min
# Description: (§2) Thereafter, 40 μl of each pre-incubation solution was added to 15 mg raw corn starch, and the reaction mixture incubated at 37° C. for 20 minutes. The control reaction mixture contained substrate, enzyme, and buffer but no manganese ion. The starch hydrolysis reaction was stopped by combining the reaction mixture with a solution containing DNSA and heating for 30 min at 85° C. The absorbance of the control and test samples was measured at 562 nm to monitor the amount of reducing sugar in each sample.
# [2] = molecular target: glucoamylase from Aspergillus Niger (Aspergillus niger, UniProt P69328); conditions: pH 5.2, 37° C., 10 min
# Description: (§1) The control reaction mixture contained enzyme, buffer, and starch but no manganese ion. The starch hydrolysis reaction was stopped by combining the reaction mixture with a solution containing DNSA and heating for 30 min at 85° C. The absorbance of the control and test samples was measured at 562 nm to monitor the amount of reducing sugar in each sample.
# [3] = molecular target: α-amylase from Aspergillus oryzae (Aspergillus oryzae, UniProt P0C1B3); assay: hydrolysis of cooked dent corn starch; format: biochemical; conditions: cooked dent corn starch 0.5%, pH 5.2, 37° C., 10 min
# Description: (§3) The separate reaction mixtures were incubated at 37° C. for 10 minutes. The control reaction mixtures contained enzyme, buffer, and starch but no manganese ion. The starch hydrolysis reaction was stopped by combining the reaction mixture with a solution containing DNSA and heating for 30 min at 85° C. The absorbance of the control and test samples was measured at 562 nm to monitor the amount of reducing sugar in each sample.
# [4] = molecular target: α-amylase from Bacillus amyloliquefaciens (Bacillus amyloliquefaciens, UniProt P00692); assay: hydrolysis of raw corn starch, reducing sugar by DNSA; format: biochemical; conditions: for Relative Activity: raw corn starch, pH 5.3, 37° C., 20 min
# Description: as §2
# [5] = molecular target: T1, α-amylase from human saliva (Homo sapiens, UniProt P0DUB6); assay: hydrolysis of cooked dent corn starch; format: biochemical; conditions: cooked dent corn starch 0.5%, pH 5.2, 37° C., 10 min
# T1 construct: the α-amylase from human saliva; from tissue; host or cells: human saliva
# T1 sequence (P0DUB6 16-511): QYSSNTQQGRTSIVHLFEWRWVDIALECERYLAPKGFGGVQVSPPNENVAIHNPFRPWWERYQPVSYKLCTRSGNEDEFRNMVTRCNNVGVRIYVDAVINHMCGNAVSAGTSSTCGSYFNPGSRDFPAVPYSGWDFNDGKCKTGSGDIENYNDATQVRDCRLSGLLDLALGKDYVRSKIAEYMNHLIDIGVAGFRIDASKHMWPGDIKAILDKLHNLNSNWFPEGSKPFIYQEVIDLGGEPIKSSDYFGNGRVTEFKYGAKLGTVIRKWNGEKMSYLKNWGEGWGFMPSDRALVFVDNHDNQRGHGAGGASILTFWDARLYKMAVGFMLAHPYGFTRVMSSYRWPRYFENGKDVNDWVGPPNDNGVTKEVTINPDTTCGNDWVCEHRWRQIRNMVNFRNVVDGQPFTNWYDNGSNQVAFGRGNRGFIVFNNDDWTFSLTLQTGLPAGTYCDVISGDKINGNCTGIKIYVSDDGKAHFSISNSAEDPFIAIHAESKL
# Description: as §3
# β-amylase from barley [6] = molecular target: T2, β-amylase from barley (Hordeum vulgare, UniProt P16098); assay: hydrolysis of cooked dent corn starch; format: biochemical; conditions: cooked dent corn starch 0.5%, pH 5.2, 37° C., 10 min
# Description: as §3
# β-amylase from barley [7] = molecular target: T2, β-amylase from barley; assay: pH effect on hydrolysis of cooked dent corn starch; format: biochemical; conditions: 1 mM Mn^++; for Relative Activity: cooked dent corn starch 0.5%, 37° C., 10 min, control at pH 5 = 100
# Description: as §1, with “The separate reaction mixtures were then incubated at 37° C. for 10 minutes. The control” for “The control”
# [8] = molecular target: T3, α-amylase from bovine pancreas (Bos taurus, UniProt Q3MHH8); assay: hydrolysis of raw corn starch at pH 5.3 or 7.0, reducing sugar by DNSA; format: biochemical; conditions: for Relative Activity: 37° C., 20 min
# T3 construct: The α-amylase from bovine pancreas; from tissue; host or cells: bovine pancreas
# T3 sequence (Q3MHH8 16-511): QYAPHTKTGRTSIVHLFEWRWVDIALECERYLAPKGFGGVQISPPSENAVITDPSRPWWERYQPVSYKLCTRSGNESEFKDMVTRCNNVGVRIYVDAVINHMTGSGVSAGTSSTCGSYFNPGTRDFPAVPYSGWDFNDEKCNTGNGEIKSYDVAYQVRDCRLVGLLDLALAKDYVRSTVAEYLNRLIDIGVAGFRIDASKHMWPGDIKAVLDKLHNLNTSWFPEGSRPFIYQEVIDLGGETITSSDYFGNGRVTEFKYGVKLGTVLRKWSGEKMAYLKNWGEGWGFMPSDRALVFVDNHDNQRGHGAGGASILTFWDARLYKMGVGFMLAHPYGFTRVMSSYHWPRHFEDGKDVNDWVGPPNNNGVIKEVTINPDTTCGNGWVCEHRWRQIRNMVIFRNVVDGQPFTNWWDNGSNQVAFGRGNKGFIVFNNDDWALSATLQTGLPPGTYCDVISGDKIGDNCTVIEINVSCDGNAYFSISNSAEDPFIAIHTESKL
# Description: as §2
# [9] = tested on: glucoamylase from Rhizopus sp.; assay: hydrolysis of cooked dent corn starch; format: biochemical; conditions: cooked dent corn starch 0.5%, pH 5.2, 37° C., 10 min
# Description: as §3
# Sequence of α-amylase from Bacillus licheniformis (P06278 30-512): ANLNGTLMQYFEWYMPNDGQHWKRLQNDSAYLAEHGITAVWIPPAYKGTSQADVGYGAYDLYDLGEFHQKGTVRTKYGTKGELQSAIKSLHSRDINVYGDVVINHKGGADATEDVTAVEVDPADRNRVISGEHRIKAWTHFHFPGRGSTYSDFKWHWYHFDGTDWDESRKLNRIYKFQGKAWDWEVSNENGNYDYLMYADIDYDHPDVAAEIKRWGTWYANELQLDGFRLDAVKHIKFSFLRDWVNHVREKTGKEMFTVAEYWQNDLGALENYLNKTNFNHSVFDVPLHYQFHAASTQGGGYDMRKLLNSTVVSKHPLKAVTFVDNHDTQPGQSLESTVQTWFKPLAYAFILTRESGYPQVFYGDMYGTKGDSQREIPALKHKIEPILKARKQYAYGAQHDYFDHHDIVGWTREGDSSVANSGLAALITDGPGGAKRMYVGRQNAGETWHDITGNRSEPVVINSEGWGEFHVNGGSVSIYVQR
# Sequence of glucoamylase from Aspergillus Niger (P69328 25-640): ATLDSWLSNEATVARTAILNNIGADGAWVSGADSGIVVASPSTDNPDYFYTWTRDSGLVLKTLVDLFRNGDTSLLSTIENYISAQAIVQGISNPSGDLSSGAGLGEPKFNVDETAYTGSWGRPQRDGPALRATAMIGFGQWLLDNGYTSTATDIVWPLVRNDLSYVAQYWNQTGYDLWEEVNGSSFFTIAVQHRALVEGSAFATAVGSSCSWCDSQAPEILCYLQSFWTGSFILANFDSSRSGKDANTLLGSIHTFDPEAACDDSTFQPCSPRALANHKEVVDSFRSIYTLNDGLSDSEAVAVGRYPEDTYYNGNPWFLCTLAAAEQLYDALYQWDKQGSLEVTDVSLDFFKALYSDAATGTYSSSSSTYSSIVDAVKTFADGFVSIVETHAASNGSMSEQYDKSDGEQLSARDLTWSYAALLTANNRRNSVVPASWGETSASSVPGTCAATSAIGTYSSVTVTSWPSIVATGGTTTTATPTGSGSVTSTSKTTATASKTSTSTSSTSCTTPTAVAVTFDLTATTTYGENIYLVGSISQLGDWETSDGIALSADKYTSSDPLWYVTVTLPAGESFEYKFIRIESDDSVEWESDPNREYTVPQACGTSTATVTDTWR
# Sequence of α-amylase from Bacillus amyloliquefaciens (P00692 32-514): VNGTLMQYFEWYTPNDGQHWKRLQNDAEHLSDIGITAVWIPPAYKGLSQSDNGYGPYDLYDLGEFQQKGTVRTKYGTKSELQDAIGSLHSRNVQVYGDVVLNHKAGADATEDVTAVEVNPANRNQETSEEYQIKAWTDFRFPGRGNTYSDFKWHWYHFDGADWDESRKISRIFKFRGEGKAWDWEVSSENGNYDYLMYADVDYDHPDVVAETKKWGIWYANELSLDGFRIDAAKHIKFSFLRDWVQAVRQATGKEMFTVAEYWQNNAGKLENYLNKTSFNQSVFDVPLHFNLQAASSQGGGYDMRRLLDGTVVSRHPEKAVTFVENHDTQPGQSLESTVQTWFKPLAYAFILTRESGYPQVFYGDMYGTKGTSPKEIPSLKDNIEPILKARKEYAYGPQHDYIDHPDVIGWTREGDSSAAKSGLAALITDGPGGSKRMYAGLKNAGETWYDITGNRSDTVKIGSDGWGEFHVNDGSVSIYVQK
# T2 sequence (P16098 whole entry): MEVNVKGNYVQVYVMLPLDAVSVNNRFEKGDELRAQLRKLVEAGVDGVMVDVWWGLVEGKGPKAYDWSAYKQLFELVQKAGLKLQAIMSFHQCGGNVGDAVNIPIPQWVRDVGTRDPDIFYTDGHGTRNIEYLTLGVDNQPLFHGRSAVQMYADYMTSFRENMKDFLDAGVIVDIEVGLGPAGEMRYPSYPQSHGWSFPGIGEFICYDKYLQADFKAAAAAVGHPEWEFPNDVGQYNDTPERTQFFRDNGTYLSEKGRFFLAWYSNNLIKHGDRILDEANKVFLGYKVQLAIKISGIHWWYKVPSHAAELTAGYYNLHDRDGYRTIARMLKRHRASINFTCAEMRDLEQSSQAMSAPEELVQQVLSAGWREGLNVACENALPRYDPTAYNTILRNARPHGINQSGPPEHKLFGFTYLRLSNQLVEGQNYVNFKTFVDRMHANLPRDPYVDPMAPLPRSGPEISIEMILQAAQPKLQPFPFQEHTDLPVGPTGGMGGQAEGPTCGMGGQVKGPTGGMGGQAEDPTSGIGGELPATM
structure (smiles),measurement,setting,value
"[Mn+2] [Mn^++, manganese ions]",Relative Activity,[1]; 0.01 mM Mn^++,93.4%
same,Relative Activity,[1]; 0.1 mM Mn^++,104.6%
same,Relative Activity,[1]; 1 mM Mn^++,113.8%
same,effect on hydrolysis of raw corn starch (in words),[1]; summary of Table 4,enhances the hydrolysis of raw corn starch
same,Relative Activity,"[2]; 0.01 mM Mn^++, cooked barley starch 0.5%",111.1%
same,Relative Activity,"[2]; 0.01 mM Mn^++, cooked pea starch 0.5%",121.1%
same,Relative Activity,"[2]; 0.01 mM Mn^++, cooked potato starch 0.5%",112.0%
same,Relative Activity,"[2]; 0.01 mM Mn^++, cooked rice starch 0.5%",109.3%
same,Relative Activity,"[2]; 0.01 mM Mn^++, cooked soluble potato starch 0.5%",104.0% and 115.7%
same,Relative Activity,"[2]; 0.01 mM Mn^++, cooked tapioca starch 0.5%",109.5%
same,Relative Activity,"[2]; 0.01 mM Mn^++, cooked wheat starch 0.5%",111.9%
same,Relative Activity,"[2]; 0.1 mM Mn^++, cooked barley starch 0.5%",117.5%
same,Relative Activity,"[2]; 0.1 mM Mn^++, cooked pea starch 0.5%",124.0%
same,Relative Activity,"[2]; 0.1 mM Mn^++, cooked potato starch 0.5%",118.8%
same,Relative Activity,"[2]; 0.1 mM Mn^++, cooked rice starch 0.5%",129.3%
same,Relative Activity,"[2]; 0.1 mM Mn^++, cooked soluble potato starch 0.5%",121.0% and 130.1%
same,Relative Activity,"[2]; 0.1 mM Mn^++, cooked tapioca starch 0.5%",126.0%
same,Relative Activity,"[2]; 0.1 mM Mn^++, cooked wheat starch 0.5%",122.2%
same,Relative Activity,"[2]; 1 mM Mn^++, cooked barley starch 0.5%",120.4%
same,Relative Activity,"[2]; 1 mM Mn^++, cooked pea starch 0.5%",138.0%
same,Relative Activity,"[2]; 1 mM Mn^++, cooked potato starch 0.5%",138.5%
same,Relative Activity,"[2]; 1 mM Mn^++, cooked rice starch 0.5%",144.0%
same,Relative Activity,"[2]; 1 mM Mn^++, cooked soluble potato starch 0.5%",140.0% and 79.9%
same,Relative Activity,"[2]; 1 mM Mn^++, cooked tapioca starch 0.5%",135.7%
same,Relative Activity,"[2]; 1 mM Mn^++, cooked wheat starch 0.5%",142.5%
same,Relative Activity,"[2]; 10 mM Mn^++, cooked barley starch 0.5%",172.6%
same,Relative Activity,"[2]; 10 mM Mn^++, cooked pea starch 0.5%",179.8%
same,Relative Activity,"[2]; 10 mM Mn^++, cooked potato starch 0.5%",200.0%
same,Relative Activity,"[2]; 10 mM Mn^++, cooked rice starch 0.5%",209.2%
same,Relative Activity,"[2]; 10 mM Mn^++, cooked tapioca starch 0.5%",183.8%
same,Relative Activity,"[2]; 10 mM Mn^++, cooked wheat starch 0.5%",185.4%
same,Relative Activity,[3]; 0.01 mM Mn^++,126.9%
same,Relative Activity,[3]; 0.1 mM Mn^++,131.2%
same,Relative Activity,[3]; 1 mM Mn^++,135.2%
same,Relative Activity,[4]; 0.01 mM Mn^++,101.5%
same,Relative Activity,[4]; 0.1 mM Mn^++,115.7%
same,Relative Activity,[4]; 1 mM Mn^++,119.1%
same,Relative Activity,[4]; 10 mM Mn^++,111.7%
same,effect on hydrolysis of raw corn starch (in words),[4]; summary of Table 4,enhances the hydrolysis of raw corn starch
same,Relative Activity,[5]; 0.01 mM Mn^++,120.2%
same,Relative Activity,[5]; 0.1 mM Mn^++,147.5%
same,Relative Activity,[5]; 1 mM Mn^++,224.4%
same,Relative Activity,[5]; 10 mM Mn^++,275.6%
same,Relative Activity,β-amylase from barley [6]; 0.01 mM Mn^++,123.5%
same,Relative Activity,β-amylase from barley [6]; 0.1 mM Mn^++,135.3%
same,Relative Activity,β-amylase from barley [6]; 1 mM Mn^++,149.8%
same,Relative Activity,β-amylase from barley [6]; 10 mM Mn^++,210.1%
same,pH range of greatest Mn^++ induced enhancement,"β-amylase from barley [7]; cooked dent corn starch, pH 3-8 tested",5.0-6.0
same,Relative Activity,β-amylase from barley [7]; pH 3,0%
same,Relative Activity,β-amylase from barley [7]; pH 4,105.8%
same,Relative Activity,β-amylase from barley [7]; pH 5,173.1%
same,Relative Activity,β-amylase from barley [7]; pH 6,176.9%
same,Relative Activity,β-amylase from barley [7]; pH 7,165.4%
same,Relative Activity,β-amylase from barley [7]; pH 8,74%
same,Relative Activity,"[8]; 0.01 mM Mn^++, pH 5.3 sodium acetate buffer",108.3%
same,Relative Activity,"[8]; 0.01 mM Mn^++, pH 7.0 potassium phosphate buffer",103.5%
same,Relative Activity,"[8]; 0.1 mM Mn^++, pH 5.3 sodium acetate buffer",125.0%
same,Relative Activity,"[8]; 0.1 mM Mn^++, pH 7.0 potassium phosphate buffer",103.5%
same,Relative Activity,"[8]; 1 mM Mn^++, pH 5.3 sodium acetate buffer",145.2%
same,Relative Activity,"[8]; 1 mM Mn^++, pH 7.0 potassium phosphate buffer",119.6%
same,Relative Activity,"[8]; 10 mM Mn^++, pH 5.3 sodium acetate buffer",139.9%
same,Relative Activity,"[8]; 10 mM Mn^++, pH 7.0 potassium phosphate buffer",95.7%
same,pH dependence of Mn^++ activation (in words),[8]; pH 5.3 vs 7.0,greater activation at a pH of 5.3 than at 7.0
same,Relative Activity,[9]; 0.01 mM Mn^++,112.0%
same,Relative Activity,[9]; 0.1 mM Mn^++,123.8%
same,Relative Activity,[9]; 1 mM Mn^++,145.1%
same,Relative Activity,[9]; 10 mM Mn^++,223.5%
